Laboratory results reported in DBAASP.
Converted amounts (≈) assume the structure as drawn. Each block holds one molecule with its values, some of them ahead of it.

Columns and labels:
Assay in all cases: ≥ marks a high value that may be exact or a test limit, other limits are often not marked, values filed in µg/mL are converted to µM
[1] = test system: Bacillus subtilis ATCC 6051
[2] = test system: Escherichia coli NEB5alpha
[3] = test system: Pseudomonas aeruginosa ATCC 27853
[4] = test system: Staphylococcus aureus ATCC 25923
[5] = test system: Staphylococcus aureus ATCC 33591
[6] = test system: Staphylococcus epidermidis ATCC 35984
[7] = test system: Cronobacter muytjensii ATCC 51329
[8] = test system: Cronobacter sakazakii ATCC BAA-894
[9] = test system: Cronobacter sakazakii DPC 6440
[10] = test system: Cronobacter sakazakii DSM 4485
[11] = test system: Escherichia coli NCIMB 11843
[12] = test system: Klebsiella pneumoniae NCIMB 13218
[13] = test system: Pseudomonas fluorescens NCIMB 9046
[14] = test system: Salmonella enterica subsp. enterica serovar Typhimurium LT2
[15] = test system: Staphylococcus aureus NCTC 8325-4
[16] = test system: Staphylococcus aureus Newman
[17] = test system: Staphylococcus aureus RF122
[18] = test system: Staphylococcus aureus RN4220
[19] = test system: Staphylococcus aureus SA113
Candida glabrata 090902 = test system: Candida glabrata 090902
[20] = test system: Enterococcus faecalis 981
[21] = test system: Nocardia asteroides 201118
[22] = test system: Psychrobacter faecalis X29
[23] = test system: Escherichia coli ATCC 11219
[24] = test system: Klebsiella pneumoniae ATCC 10031
[25] = test system: Pseudomonas aeruginosa ATCC 13388
[26] = test system: Salmonella enterica subsp. enterica serovar Typhimurium ATCC 14028
[27] = test system: Staphylococcus aureus ATCC 6538
Bacillus subtilis A47 = test system: Bacillus subtilis A47
Escherichia coli 44102 = test system: Escherichia coli 44102
[28] = test system: Staphylococcus aureus 22401
[29] = test system: Enterobacter cloacae CGMCC 1.57
[30] = test system: Enterococcus faecium 091299
[31] = test system: Klebsiella pneumoniae 08040724

SMILES: CC[C@H](C)[C@H](NC(=O)[C@@H](N)Cc1cnc[nH]1)C(=O)N[C@@H](CCC(N)=O)C(=O)N[C@@H](CCCCN)C(=O)N[C@@H](CCC(=O)O)C(=O)N[C@@H](CC(=O)O)C(=O)N[C@H](C(=O)N1CCC[C@H]1C(=O)N[C@@H](CO)C(=O)N[C@@H](CCC(=O)O)C(=O)N[C@@H](CCCN=C(N)N)C(=O)N[C@@H](Cc1ccc(O)cc1)C(=O)N[C@@H](CC(C)C)C(=O)NCC(=O)N[C@@H](Cc1ccc(O)cc1)C(=O)N[C@@H](CC(C)C)C(=O)N[C@@H](CCC(=O)O)C(=O)N[C@@H](CCC(N)=O)C(=O)N[C@@H](CC(C)C)C(=O)N[C@@H](CC(C)C)C(=O)N[C@@H](CCCN=C(N)N)C(=O)N[C@@H](CC(C)C)C(=O)N[C@@H](CCCCN)C(=O)N[C@@H](CCCCN)C(=O)N[C@@H](Cc1ccc(O)cc1)C(=O)N[C@@H](CCCCN)C(=O)O)C(C)C [HIQKEDVPSERYLGYLEQLLRLKKYK]
- MIC [1]: ≥ 42.3 µM
- MIC [2]: ≥ 169 µM

SMILES: CC[C@H](C)[C@H](NC(=O)[C@@H](NC(=O)[C@H](CCCCN)NC(=O)CNC(=O)[C@H](CC(C)C)NC(=O)[C@@H](NC(=O)[C@@H]1CCCN1C(=O)[C@H](CC(C)C)NC(=O)[C@@H](N)Cc1ccccc1)C(C)C)C(C)C)C(=O)N[C@@H](CCCCN)C(=O)N[C@@H](CC(C)C)C(=O)N[C@H](C(=O)NCC(=O)NCC(=O)N[C@@H](CC(C)C)C(=O)N[C@@H](CC(C)C)C(N)=O)C(C)C [FLPVLGKVIKLVGGLL]
- MIC (Candida glabrata 090902): ≥ 50 µM
- MIC [20]: 3.1 µM (≈ 5.16 µg/mL)
- MIC [21]: 3.1 µM (≈ 5.16 µg/mL)
- MIC [22]: ≥ 50 µM
- MIC [4]: 3.1 µM (≈ 5.16 µg/mL)

SMILES: CC[C@H](C)[C@H](NC(=O)CN)C(=O)N[C@@H](Cc1cnc[nH]1)C(=O)N[C@@H](CC(=O)O)C(=O)N[C@H](C(=O)N[C@@H](CC(C)C)C(=O)N[C@@H](CCCCN)C(=O)N[C@@H](Cc1ccc(O)cc1)C(=O)NCC(=O)N[C@@H](CCCCN)C(=O)N1CCC[C@H]1C(=O)N[C@@H](C)C(N)=O)[C@@H](C)CC [GIHDILKYGKPA]
- MIC [23]: ≥ 50 µM
- MIC [24]: 30 µM (≈ 39.3 µg/mL)
- MIC [25]: ≥ 50 µM
- MIC [26]: > 50 µM
- MIC [27]: > 50 µM

SMILES: CC[C@H](C)[C@H](NC(=O)[C@H](CCCCN)NC(=O)[C@@H](NC(=O)[C@H](Cc1ccccc1)NC(=O)[C@H](C)NC(=O)[C@H](CCCCN)NC(=O)CNC(=O)[C@H](Cc1ccccc1)NC(=O)[C@H](CCCCN)NC(=O)[C@H](CCCCN)NC(=O)[C@H](C)NC(=O)[C@H](CCCCN)NC(=O)[C@H](CCCCN)NC(=O)[C@H](CC(C)C)NC(=O)[C@H](Cc1ccccc1)NC(=O)[C@H](CCCCN)NC(=O)CN)C(C)C)C(N)=O [GKFLKKAKKFGKAFVKI]
- MIC [3]: 0.73 µM (≈ 1.41 µg/mL)
- MIC [4]: 132 µM (≈ 256 µg/mL)
- MIC [5]: ≥ 264 µM
- MIC [6]: 5.84 µM (≈ 11.3 µg/mL)

SMILES: CC[C@H](C)[C@@H]1NC(=O)[C@H](CCCCN)NC(=O)[C@@H](NC(=O)[C@H](CCCCN)NC(=O)[C@H](CC(C)C)NC(=O)[C@H](CCCCN)NC(=O)[C@H](CC(=O)O)NC(=O)[C@H](CC(C)C)NC(=O)[C@H](CC(C)C)NC(=O)[C@@H](NC(=O)[C@@H](NC(=O)[C@H](C)NC(=O)[C@@H](NC(=O)[C@H](CC(N)=O)NC(=O)[C@H](CCCCN)NC(=O)[C@H](Cc2ccccc2)NC(=O)[C@@H](NC(=O)[C@H](CC(N)=O)NC(=O)[C@H](CCCCN)NC(=O)[C@H](C)NC(=O)[C@@H](NC(=O)[C@H](CC(=O)O)NC(=O)[C@H](CCSC)NC(=O)[C@H](Cc2ccccc2)NC(=O)CN)[C@@H](C)O)C(C)C)C(C)C)C(C)C)[C@@H](C)O)CSSC[C@@H](C(=O)O)NC(=O)CNC(=O)CNC(=O)[C@H](C)NC1=O [GFMDTAKNVFKNVAVTLLDKLKCKIAGGC]
- MIC [29]: ≥ 50 µM
- MIC [20]: ≥ 100 µM
- MIC [30]: 25 µM (≈ 77.1 µg/mL)
- MIC [31]: ≥ 100 µM
- MIC [21]: 6.3 µM (≈ 19.4 µg/mL)
- MIC [22]: 3.1 µM (≈ 9.56 µg/mL)
- MIC [4]: 50 µM (≈ 154 µg/mL)

More lines, now with the values ahead:

- MIC [3]: 16.1 µM (≈ 22.6 µg/mL)
- MIC [4]: 257 µM (≈ 362 µg/mL)
- MIC [5]: ≥ 257 µM
- MIC [6]: ≥ 64.3 µM
SMILES: CC[C@H](C)[C@H](NC(=O)[C@H](CCCCN)NC(=O)[C@@H](NC(=O)[C@H](Cc1ccccc1)NC(=O)[C@H](C)NC(=O)[C@H](CCCCN)NC(=O)CNC(=O)[C@H](Cc1ccccc1)NC(=O)[C@@H](N)CCCCN)C(C)C)C(=O)N[C@@H](CC(C)C)C(=O)N[C@@H](CCCCN)C(=O)N[C@@H](CCCCN)C(N)=O [KFGKAFVKILKK]

- MIC [7]: ≥ 1250 µM
- MIC [8]: ≥ 2500 µM
- MIC [9]: ≥ 1250 µM
- MIC [10]: ≥ 1250 µM
- MIC [11]: ≥ 2500 µM
- MIC [12]: ≥ 2500 µM
- MIC [13]: ≥ 2500 µM
- MIC [14]: ≥ 2500 µM
- MIC [15]: ≥ 1250 µM
- MIC [16]: ≥ 2500 µM
- MIC [17]: ≥ 2500 µM
- MIC [18]: ≥ 2500 µM
- MIC [19]: ≥ 2500 µM
SMILES: CC(C)C[C@H](NC(=O)[C@H](CC(C)C)NC(=O)[C@H](CC(N)=O)NC(=O)[C@H](CCC(=O)O)NC(=O)[C@H](CC(N)=O)NC(=O)[C@H](C)NC(=O)[C@@H](N)C(C)C)C(=O)N[C@@H](CCCN=C(N)N)C(=O)O [VANENLLR]

- MIC [1]: ≥ 500 µM
- MIC [2]: ≥ 1000 µM
SMILES: CC[C@H](C)[C@H](NC(=O)[C@H](CO)NC(=O)[C@H](CCC(=O)O)NC(=O)[C@H](CCCCN)NC(=O)[C@@H](NC(=O)[C@@H](N)CCCCN)C(C)C)C(=O)N[C@H](C(=O)N[C@@H](CCCN=C(N)N)C(=O)N[C@@H](CCCCN)C(=O)N[C@@H](CC(C)C)C(=O)O)[C@@H](C)CC [KVKESIIRKL]

- MIC (Bacillus subtilis A47): ≥ 50 µM
- MIC (Escherichia coli 44102): ≥ 50 µM
- MIC [28]: 12.5 µM (≈ 32.4 µg/mL)
SMILES: CC(C)C[C@H](NC(=O)CNC(=O)[C@H](Cc1ccccc1)NC(=O)[C@H](CC(C)C)NC(=O)[C@H](CCCN=C(N)N)NC(=O)[C@H](CC(C)C)NC(=O)[C@H](Cc1c[nH]c2ccccc12)NC(=O)CNC(=O)[C@H](CO)NC(=O)[C@H](CCCN=C(N)N)NC(=O)[C@H](CCCN=C(N)N)NC(=O)[C@H](CCC(=O)O)NC(=O)[C@H](CC(C)C)NC(=O)[C@H](C)NC(=O)[C@@H](N)CC(C)C)C(=O)N[C@@H](CCCCN)C(=O)N1CCC[C@H]1C(=O)N[C@@H](CCCN=C(N)N)C(=O)N[C@@H](CCCN=C(N)N)C(=O)N[C@@H](CCCCN)C(=O)N[C@@H](Cc1cnc[nH]1)C(=O)O [LALERRSGWLRLFGLKPRRKH]

- MIC [7]: ≥ 2500 µM
- MIC [8]: ≥ 2500 µM
- MIC [9]: ≥ 2500 µM
- MIC [10]: ≥ 2500 µM
- MIC [11]: ≥ 2500 µM
- MIC [12]: ≥ 2500 µM
- MIC [13]: ≥ 2500 µM
- MIC [14]: ≥ 2500 µM
- MIC [15]: ≥ 2500 µM
- MIC [16]: ≥ 2500 µM
- MIC [17]: ≥ 2500 µM
- MIC [18]: ≥ 2500 µM
- MIC [19]: ≥ 2500 µM
SMILES: CC[C@H](C)[C@H](N)C(=O)N[C@@H](CCCCN)C(=O)N[C@@H](Cc1cnc[nH]1)C(=O)N[C@@H](CCC(N)=O)C(=O)NCC(=O)N[C@@H](CC(C)C)C(=O)N1CCC[C@H]1C(=O)N[C@@H](CCC(N)=O)C(=O)N[C@@H](CCC(=O)O)C(=O)N[C@@H](CCC(=O)O)C(=O)O [IKHQGLPQEE]
